Results taken from patent US8916681B2, “Compound, use and method” (Medical Research Council, priority 2007, dated 2014).
Non-standard residues stand in square brackets, D forms with d. Residues, ends and D or L forms follow the SMILES beside them.

How the values were obtained:
GPR54 [1] = molecular target: T1, GPR54 (Homo sapiens, UniProt Q969F8); assay: Inositol phosphate (IP) antagonism assay: inhibition of 10 nM kisspeptin-10 stimulation of IP in CHO/gpr-54 cells; assay type: cell-based; set-up: G. Vassart, Univ; Brussels; conditions: for IC50 / Inhibition of IP stimulation by 10 nM Agonist: % Inhibition of Max: CHO cells, 10 nM kisspeptin-10; for IC50: unit inferred, given in M
T1 sequence (Q969F8 whole entry): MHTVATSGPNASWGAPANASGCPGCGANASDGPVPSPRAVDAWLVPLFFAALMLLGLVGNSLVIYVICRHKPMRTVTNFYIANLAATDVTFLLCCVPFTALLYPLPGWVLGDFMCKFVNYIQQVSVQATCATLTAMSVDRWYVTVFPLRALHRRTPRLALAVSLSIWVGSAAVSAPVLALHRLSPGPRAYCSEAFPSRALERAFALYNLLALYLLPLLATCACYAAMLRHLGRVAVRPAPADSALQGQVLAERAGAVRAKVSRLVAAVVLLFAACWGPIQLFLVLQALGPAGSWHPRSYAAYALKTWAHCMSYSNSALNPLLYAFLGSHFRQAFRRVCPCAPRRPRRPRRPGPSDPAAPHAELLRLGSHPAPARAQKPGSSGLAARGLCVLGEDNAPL
Method: Inositol-3-phoshate Antagonistic Assay—Cell monolayers had 0.5 mls HEPES modified DMEM supplemented with […] for 30 mins at 37° C. to block IP3 breakdown. Cells were then stimulated with 0.25 mls 10 nM Kisspeptin-10 plus 0.25 mls of 10 nM Kisspeptin-10 or analogues (10 pM-10 uM) diluted at 1:1000 in the above media for 1 hr at 37° C., then in 10 mM Formic acid at 4° C. for 1 hr to lyse cells. Lysate was then transferred to plastic tubes containing 0.5 mls Dowex resin to bind the radioactive IP3 and the resin was then washed with 1 ml H2O. The resin was then washed with 60 mM NH4 formate/5 mM Sodium tetraborate followed by 1M NH4 formate/0.1M Formic acid to release the bound radiation. Then 800 μls of the radioactive solution were transferred to scintillation vials containing 2.5 mls scintillation fluid and radioactivity counted on a Beta counter for 60 seconds.
Chinese hamster ovary (CHO) cells stably-expressing the human gpr-54 receptor (CHO/gpr-54) were obtained from Prof. G. Vassart, Univ. Brussels. The cells were maintained in Dulbecco's modified Eagle's medium (DMEM; Sigma) supplemented with 10% fetal calf serum, 2% glutamine and 1% penicillin (10,000 units/ml)/streptomycin ([…]) at 37° C. in a humidified 5% CO2 atmosphere.
Experiments were repeated 3-5 times. IP production was plotted as mean values±SEM and analyzed using a Student's t-Test ([…]).

GPR54 [2] = molecular target: T1, GPR54; assay: Inositol phosphate (IP) stimulation assay in CHO/gpr-54 cells; assay type: cell-based; set-up: G. Vassart, Univ; Brussels; conditions: CHO cells stably-expressing human gpr-54
Method: Inositol-3-phoshate Stimulation Assay—Cell monolayers had 0.5 mls HEPES modified DMEM supplemented with 1% Penicillin/Streptomycin for 30 mins at 37° C. to block IP3 breakdown. Cells were then stimulated with 0.5 mls Kisspeptin-10 and analogues (10 pM-1 uM) diluted at 1:1000 in the above media for 1 hr at 37° C., then in 10 mM Formic acid at 4° C. for 1 hr to lyse cells. Lysate was then transferred to plastic tubes containing 0.5 mls Dowex resin to bind the radioactive IP3 and the resin was then washed with 1 ml H2O. The resin was then washed with 60 mM NH4 formate/5 mM Sodium tetraborate followed by 1M NH4 formate/0.1M Formic acid to release the bound radiation. Then 800 μls of the radioactive solution were transferred to scintillation vials containing 2.5 mls scintillation fluid and radioactivity counted on a Beta counter for 60 seconds.
IP stimulation refers to intrinsic residual agonist activity where estimateable.
The cells were maintained in Dulbecco's modified Eagle's medium (DMEM; Sigma) supplemented with 10% fetal calf serum, 2% glutamine and 1% penicillin (10,000 units/ml)/streptomycin (10,000 mg/ml) at 37° C. in a humidified 5% CO2 atmosphere.
Prior to stimulation CHO/gpr-54 cells were washed twice with Dulbecco's phosphate-buffered saline (DPBS; without calcium or magnesium) then incubated overnight with ^3H-myoinositol, labeled HEPES-modified DMEM with 1% penicillin/streptomycin at 37° C. HEPES-modified DMEM supplemented with 1% penicillin/streptomycin and 1% lithium chloride (0.5 ml) was added to cells for 30 min at 37° C. to block IP hydrolysis. Cells were then stimulated with 0.5 ml kisspeptin-10 and analogues (10 pM-1 μM) diluted at 1:100 in the above media for 1 h at 37° C., then with 10 mM formic acid at 4° C. for 1 h to lyse cells. Lysates were transferred to plastic tubes containing 0.5 ml Dowex resin to bind the radioactive IP and the resin was then washed with 1 ml water. The resin was next washed with 60 mM ammonium formate/5 mM sodium tetraborate. followed by 1M ammonium formate/0.1M formic acid to release the bound radiation. Then 800 μl of the radioactive solution were transferred to scintillation vials containing 2.5 ml scintillation fluid and radioactivity counted on a Beta counter for 60 sec. Experiments were repeated 3-5 times. IP production was plotted as mean values±SEM and analyzed by using a Student's t-Test (p≧0.05).

IC50 (GPR54 [1]) [µM]	stimulation of IP by the peptide alone (GPR54 [2])	Inhibition of IP stimulation by 10 nM Agonist: % Inhibition of Max (GPR54 [1]) [%]	kisspeptin antagonist function (GPR54 [1]; with N-terminal Antennapedia heptapeptide)	Compound
0.05	little or no stimulation			CC(=O)N[C@H](Cc1ccc(O)cc1)C(=O)N[C@@H](CC(N)=O)C(=O)N[C@@H](Cc1c[nH]c2ccccc12)C(=O)N[C@@H](CC(N)=O)C(=O)NCC(=O)N[C@@H](Cc1ccccc1)C(=O)NCC(=O)N[C@H](Cc1c[nH]c2ccccc12)C(=O)N[C@@H](CCCNC(=N)N)C(=O)N[C@@H](Cc1ccccc1)C(N)=O [Peptide 230] (Ac-[dY]NWNGFG[dW]RF-NH2)
0.03	little or no stimulation			CC(=O)N[C@@H](Cc1ccc(O)cc1)C(=O)N[C@H](CC(N)=O)C(=O)N[C@@H](Cc1c[nH]c2ccccc12)C(=O)N[C@@H](CC(N)=O)C(=O)NCC(=O)N[C@@H](Cc1ccccc1)C(=O)NCC(=O)N[C@H](Cc1c[nH]c2ccccc12)C(=O)N[C@@H](CCCNC(=N)N)C(=O)N[C@@H](Cc1ccccc1)C(N)=O [Peptide 232] (Ac-Y[dN]WNGFG[dW]RF-NH2)
0.01	little or no stimulation			CC(=O)N[C@@H](Cc1ccc(O)cc1)C(=O)N[C@@H](CC(N)=O)C(=O)N[C@H](C)C(=O)N[C@@H](CC(N)=O)C(=O)NCC(=O)N[C@@H](Cc1ccccc1)C(=O)NCC(=O)N[C@H](Cc1c[nH]c2ccccc12)C(=O)N[C@@H](CCCNC(=N)N)C(=O)N[C@@H](Cc1ccccc1)C(N)=O [Peptide 235] (Ac-YN[dA]NGFG[dW]RF-NH2)
0.05	little or no stimulation			CC(=O)N[C@@H](Cc1ccc(O)cc1)C(=O)N[C@H](C)C(=O)N[C@@H](Cc1c[nH]c2ccccc12)C(=O)N[C@@H](CC(N)=O)C(=O)NCC(=O)N[C@@H](Cc1ccccc1)C(=O)NCC(=O)N[C@H](Cc1c[nH]c2ccccc12)C(=O)N[C@@H](CCCNC(=N)N)C(=O)N[C@@H](Cc1ccccc1)C(N)=O [Peptide 236] (Ac-Y[dA]WNGFG[dW]RF-NH2)
		0		CC(=O)N[C@H](Cc1ccc(O)cc1)C(=O)N[C@@H](CC(N)=O)C(=O)N[C@@H](Cc1c[nH]c2ccccc12)C(=O)N[C@@H](CC(N)=O)C(=O)N[C@@H](CO)C(=O)N[C@@H](Cc1ccccc1)C(=O)NCC(=O)N[C@H](Cc1c[nH]c2ccccc12)C(=O)N[C@@H](CCCNC(=N)N)C(=O)N[C@@H](Cc1ccccc1)C(N)=O [Peptide 238] (Ac-[dY]NWNSFG[dW]RF-NH2)
		0		CC(=O)N[C@H](Cc1ccc(O)cc1)C(=O)N[C@H](CC(N)=O)C(=O)N[C@@H](Cc1c[nH]c2ccccc12)C(=O)N[C@@H](CC(N)=O)C(=O)N[C@@H](CO)C(=O)N[C@@H](Cc1ccccc1)C(=O)NCC(=O)N[C@@H](Cc1c[nH]c2ccccc12)C(=O)N[C@@H](CCCNC(=N)N)C(=O)N[C@@H](Cc1ccccc1)C(N)=O [Peptide 239] (Ac-[dY][dN]WNSFGWRF-NH2)
0.01		55		CC(=O)N[C@H](Cc1c[nH]c2ccccc12)C(=O)N[C@@H](CC(N)=O)C(=O)N[C@@H](Cc1c[nH]c2ccccc12)C(=O)N[C@@H](CC(N)=O)C(=O)NCC(=O)N[C@@H](Cc1ccccc1)C(=O)NCC(=O)N[C@H](Cc1c[nH]c2ccccc12)C(=O)N[C@@H](CCCNC(=N)N)C(=O)N[C@@H](Cc1ccccc1)C(N)=O [Peptide 243] (Ac-[dW]NWNGFG[dW]RF-NH2)
0.01		60		CC(=O)N[C@H](Cc1ccccc1)C(=O)N[C@@H](CC(N)=O)C(=O)N[C@@H](Cc1c[nH]c2ccccc12)C(=O)N[C@@H](CC(N)=O)C(=O)NCC(=O)N[C@@H](Cc1ccccc1)C(=O)NCC(=O)N[C@H](Cc1c[nH]c2ccccc12)C(=O)N[C@@H](CCCNC(=N)N)C(=O)N[C@@H](Cc1ccccc1)C(N)=O [Peptide 244] (Ac-[dF]NWNGFG[dW]RF-NH2)
		66		CC(=O)N[C@H](Cc1ccc(O)cc1)C(=O)N[C@@H](CC(N)=O)C(=O)N[C@@H](Cc1c[nH]c2ccccc12)C(=O)N[C@@H](CC(N)=O)C(=O)NCC(=O)N[C@H](Cc1c[nH]c2ccccc12)C(=O)NCC(=O)N[C@H](Cc1c[nH]c2ccccc12)C(=O)N[C@@H](CCCNC(=N)N)C(=O)N[C@@H](Cc1ccccc1)C(N)=O [Peptide 245] (Ac-[dY]NWNG[dW]G[dW]RF-NH2)
0.05		80		CC(=O)N[C@H](C)C(=O)N[C@@H](CC(N)=O)C(=O)N[C@@H](Cc1c[nH]c2ccccc12)C(=O)N[C@@H](CC(N)=O)C(=O)NCC(=O)N[C@H](Cc1c[nH]c2ccccc12)C(=O)NCC(=O)N[C@H](Cc1c[nH]c2ccccc12)C(=O)N[C@@H](CCCNC(=N)N)C(=O)N[C@@H](Cc1ccccc1)C(N)=O [Peptide 246] (Ac-[dA]NWNG[dW]G[dW]RF-NH2)
		80		CC(=O)N[C@H](C)C(=O)N[C@@H](CC(N)=O)C(=O)N[C@@H](Cc1c[nH]c2ccccc12)C(=O)N[C@@H](CC(N)=O)C(=O)N[C@@H](CO)C(=O)N[C@@H](Cc1ccccc1)C(=O)NCC(=O)N[C@H](Cc1c[nH]c2ccccc12)C(=O)N[C@@H](CCCNC(=N)N)C(=O)N[C@@H](Cc1ccccc1)C(N)=O [Peptide 247] (Ac-[dA]NWNSFG[dW]RF-NH2)
		64		CC(=O)N[C@H](C)C(=O)N[C@@H](CC(N)=O)C(=O)N[C@@H](Cc1c[nH]c2ccccc12)C(=O)N[C@@H](CC(N)=O)C(=O)NCC(=O)N[C@@H](Cc1ccccc1)C(=O)NCC(=O)N[C@@H](Cc1c[nH]c2ccccc12)C(=O)N[C@@H](CCCNC(=N)N)C(=O)N[C@@H](Cc1ccccc1)C(N)=O [Peptide 248] (Ac-[dA]NWNGFGWRF-NH2)
0.005		57	retains kisspeptin antagonist function	CSCC[C@H](NC(=O)[C@H](CCCNC(=N)N)NC(=O)[C@H](CCCNC(=N)N)NC(C)=O)C(=O)N[C@@H](CCCCN)C(=O)N[C@@H](Cc1c[nH]c2ccccc12)C(=O)N[C@@H](CCCCN)C(=O)N[C@@H](CCCCN)C(=O)N[C@@H](Cc1ccc(O)cc1)C(=O)N[C@H](C)C(=O)N[C@@H](CC(N)=O)C(=O)N[C@@H](Cc1c[nH]c2ccccc12)C(=O)N[C@@H](CC(N)=O)C(=O)NCC(=O)N[C@@H](Cc1ccccc1)C(=O)NCC(=O)N[C@H](Cc1c[nH]c2ccccc12)C(=O)N[C@@H](CCCNC(=N)N)C(=O)N[C@@H](Cc1ccccc1)C(N)=O [Peptide 271, ac.R-R-M-K-W-K-K-Y-(D)A-N-W-N-G-F-G-(D)W-R-F.z] (Ac-RRMKWKKY[dA]NWNGFG[dW]RF-NH2)
0.0001		73		CC(=O)N[C@H](C)C(=O)N[C@@H](CC(N)=O)C(=O)N[C@@H](Cc1c[nH]c2ccccc12)C(=O)N[C@@H](CC(N)=O)C(=O)N1CCC[C@H]1C(=O)N[C@@H](Cc1ccccc1)C(=O)NCC(=O)N[C@H](Cc1c[nH]c2ccccc12)C(=O)N[C@@H](CCCNC(=N)N)C(=O)N[C@@H](Cc1ccccc1)C(N)=O [Peptide 274] (Ac-[dA]NWNPFG[dW]RF-NH2)
> 0.1		44		CC(=O)N[C@H](C)C(=O)N[C@@H](CC(N)=O)C(=O)N[C@@H](Cc1c[nH]c2ccccc12)C(=O)N[C@@H](CC(N)=O)C(=O)N1CCC[C@@H]1C(=O)N[C@@H](Cc1ccccc1)C(=O)NCC(=O)N[C@H](Cc1c[nH]c2ccccc12)C(=O)N[C@@H](CCCNC(=N)N)C(=O)N[C@@H](Cc1ccccc1)C(N)=O [Peptide 275] (Ac-[dA]NWN[dP]FG[dW]RF-NH2)
		65		CC(=O)N[C@H](C)C(=O)N[C@@H](CC(N)=O)C(=O)N[C@@H](Cc1c[nH]c2ccccc12)C(=O)N[C@@H](CC(N)=O)C(=O)NCC(=O)N[C@@H](Cc1ccccc1)C(=O)NCC(=O)N[C@H](CC(C)C)C(=O)N[C@@H](CCCNC(=N)N)C(=O)N[C@@H](Cc1ccccc1)C(N)=O [Peptide 276] (Ac-[dA]NWNGFG[dL]RF-NH2)
		57		CC(=O)N[C@H](C)C(=O)N[C@@H](CC(N)=O)C(=O)N[C@@H](Cc1c[nH]c2ccccc12)C(=O)N[C@@H](CC(N)=O)C(=O)N[C@H](C)C(=O)N[C@@H](Cc1ccccc1)C(=O)NCC(=O)N[C@@H](CC(C)C)C(=O)N[C@@H](CCCNC(=N)N)C(=O)N[C@@H](Cc1ccccc1)C(N)=O [Peptide 277] (Ac-[dA]NWN[dA]FGLRF-NH2)
> 0.2		47		CC(=O)N[C@H](C)C(=O)N[C@@H](CC(N)=O)C(=O)N[C@@H](Cc1c[nH]c2ccccc12)C(=O)N[C@@H](CC(N)=O)C(=O)NCC(=O)N[C@@H](Cc1ccccc1)C(=O)NCC(=O)N[C@@H](CC(C)C)C(=O)N[C@H](CCCNC(=N)N)C(=O)N[C@@H](Cc1ccccc1)C(N)=O [Peptide 278] (Ac-[dA]NWNGFGL[dR]F-NH2)
